Measurements as given in US20150259295A1, “SUBSTITUTED PYRAZOLE COMPOUNDS AS LPAR ANTAGONISTS” (Hoffmann-La Roche Inc., priority 2012, published 2015).

What was measured:
[1] = target: human recombinant LPA1 Lysophospholipid receptor (Homo sapiens, UniProt Q92633); experiment: Calcium flux assay using FLIPR, LPA1R antagonist activity; type: cell-based
Protocol: (§1) Calcium Flux Assay Using Fluorometric Imaging Plate Reader (FLIPR)
Cell Culture Conditions: The ChemiScreen Calcium-optimized stable cell line containing the human recombinant LPA1 Lysophospholipid receptor was purchased from Chemicon International, Inc./Millipore. The cells were cultured in DMEM-high glucose supplemented with 10% fetal bovine serum, 2 mM glutamine, 100 U/mL penicillin/100 μg/mL streptomycin, 1× non-essential amino acids, 10 mM HEPES and 0.25 mg/mL Geneticin. Cells were harvested with trypsin-EDTA and counted using ViaCount reagent. The cell suspension volume was adjusted to 2.0×10^5 cells/mL with complete growth media. Aliquots of 50 μL were dispensed into 384 well black/clear tissue culture treated plates (BD) and the microplates were placed in a 37° C. incubator overnight. The following day plates were used in the assay.
Dye Loading and Assay: Loading Buffer (FLIPR Calcium-4, Molecular Devices) was prepared by dissolving the contents of one bottle into 100 mL Hank's Balanced Salt Solution containing 20 mM HEPES and 2.5 mM probenecid. Plates were loaded onto Biotek plate washer and growth media was removed and replaced with 20 µL of Hank's Balanced Salt Solution containing 20 mM HEPES and 2.5 mM probenecid, followed by 25 μL of Loading Buffer. The plates were then incubated for 30 minutes at 37° C.
During the incubation, test compounds were prepared by adding 90 μL of HBSS/20 mM HEPES/0.1% BSA buffer to 2 μL of serially diluted compounds. To prepare serial dilutions, 10 mM stocks of compounds were prepared in 100% DMSO. The compound dilution plate was set up as follows: well #1 received 29 μL of stock compound and 31 μL DMSO; wells 2-10 received 40 μL of DMSO; mixed and transferred 20 μL of solution from well #1 into well #2; continued with 1:3 serial dilutions out 10 steps; transferred 2 μL of diluted compound into duplicate wells of 384 well “assay plate” and then added the 90 μL of buffer.
(§2) After incubation, both the cell and “assay” plates were brought to the FLIPR and 20 μL of the diluted compounds were transferred to the cell plates by the FLIPR. Compound addition was monitored by FLIPR to detect any agonist activity of the compounds. Plates were then incubated for 30 minutes at room temperature protected from light. After the incubation, plates were returned to the FLIPR and 20 μL of 4.5× concentrated agonist was added to the cell plates. During the assay, fluorescence readings were taken simultaneously from all 384 wells of the cell plate every 1.5 seconds. Five readings were taken to establish a stable baseline, then 20 μL of sample was rapidly (30 μL/sec) and simultaneously added to each well of the cell plate. The fluorescence was continuously monitored before, during and after sample addition for a total elapsed time of 100 seconds. Responses (increase in peak fluorescence) in each well following agonist addition was determined. The initial fluorescence reading from each well, prior to ligand stimulation, was used as zero baseline value for the data from that well. The responses were expressed as % inhibition of the buffer control.

[2] = target: T1, LPA3R (Homo sapiens, UniProt Q9UBY5); experiment: LPA3R antagonist activity (Table 1, calcium flux FLIPR); type: cell-based
T1 sequence (Q9UBY5 1-353): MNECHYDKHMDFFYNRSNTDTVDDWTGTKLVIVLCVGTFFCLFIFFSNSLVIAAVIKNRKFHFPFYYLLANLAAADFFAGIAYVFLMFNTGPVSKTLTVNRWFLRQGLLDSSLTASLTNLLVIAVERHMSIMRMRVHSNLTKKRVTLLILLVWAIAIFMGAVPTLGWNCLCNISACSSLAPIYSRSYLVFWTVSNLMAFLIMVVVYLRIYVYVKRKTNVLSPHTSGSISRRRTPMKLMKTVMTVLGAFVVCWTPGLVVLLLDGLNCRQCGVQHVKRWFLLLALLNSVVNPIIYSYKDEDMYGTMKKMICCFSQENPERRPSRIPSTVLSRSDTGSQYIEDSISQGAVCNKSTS
Protocol: as §1, §2

Chain of human recombinant LPA1 Lysophospholipid receptor (Q92633 whole entry): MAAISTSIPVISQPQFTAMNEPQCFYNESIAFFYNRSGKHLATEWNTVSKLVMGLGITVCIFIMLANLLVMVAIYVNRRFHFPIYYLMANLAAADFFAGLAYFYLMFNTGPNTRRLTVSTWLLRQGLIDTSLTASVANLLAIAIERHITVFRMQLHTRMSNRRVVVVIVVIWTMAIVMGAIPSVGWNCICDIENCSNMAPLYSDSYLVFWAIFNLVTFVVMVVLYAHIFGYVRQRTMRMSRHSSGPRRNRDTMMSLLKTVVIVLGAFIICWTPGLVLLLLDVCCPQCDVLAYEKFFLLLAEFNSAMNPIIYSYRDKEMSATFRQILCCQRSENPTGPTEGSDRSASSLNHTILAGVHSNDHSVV

CC(OC(=O)Nc1c(-c2ccccc2F)cnn1C)c1cccc(C(F)(F)F)c1 (racemic) [Example 12, [4-(2-Fluoro-phenyl)-2-methyl-2H-pyrazol-3-yl]-carbamic acid 1-(3-trifluoromethyl-phenyl)-ethyl ester]
inhibition at 30 µM ([1]; @ 30 μM): 50.5% | IC50 ([1]; ChemiScreen calcium-optimized stable cell line, FLIPR calcium flux, antagonist mode): 24.6 µM | IC50 [2]: > 30 µM
